In BigSolDB 2.1:

Settings: in n-hexane

SMILES	solubility (mole fraction) (293.15 K)	solubility (mole fraction) (298.15 K)	solubility (mole fraction) (303.15 K)	solubility (mole fraction) (308.15 K)	solubility (mole fraction) (313.15 K)
Cc1ccc(N=C2[Se]CC3CCCN2C3)cc1Cl (stereo not given)	0.000536	0.000551	0.000567	0.000581	0.000595
CC(C)c1ccc(N=C2[Se]CC3CCCN2C3)cc1 (stereo not given)	0.000481	0.00056	0.000643	0.000725	0.000819
Fc1ccc(N=C2[Se]CC3CCCN2C3)cc1 (stereo not given)	0.00115	0.00121	0.00128	0.00134	0.00143
